Tests used:
[1] = target: T1, human α1H T-type channels (Homo sapiens, UniProt O95180); experiment: T-type calcium channel block, whole cell patch clamp (α1H); format: cell-based; conditions: HEK cells stably expressing human α1H; mainly non-inactivated protocol; values above 10 μM represented as 10 μM
T1 construct: expressed in transfected cells; host or cells: HEK 293
Procedure: (§1) T-type calcium channel blocking activity was assayed in human embryonic kidney cells, HEK 293, stably transfected with the T-type calcium channel subunits. Briefly, cells were cultured in Dulbecco's modified eagle medium (DMEM) supplemented with 10% fetal bovine serum, 200 U/ml penicillin and 0.2 mg/ml streptomycin at 37° C. with 5% CO2. At 85% confluency cells were split with 0.25% trypsin/1 mM EDTA and plated at 10% confluency on glass coverslips. At 12 hours the medium was replaced and the cells stably transfected using a standard calcium phosphate protocol and the appropriate calcium channel cDNA's. Fresh DMEM was supplied and the cells transferred to 28° C./5% CO2. Cells were incubated for 1 to 2 days prior to whole cell recording.
(§2) Standard patch-clamp techniques were employed to identify blockers of T-type currents. Briefly, previously described HEK cell lines stably expressing human α1G, α1H and α1I T-type channels were used for all the recordings (passage #: 4-20, 37° C., 5% CO2). Whole cell patch clamp experiments were performed using an Axopatch 200B amplifier (Axon Instruments, Burlingame, Calif.) linked to a personal computer equipped with pCLAMP software. Data were analyzed using Clampfit (Axon Instruments) and SigmaPlot 4.0 (Jandel Scientific). To obtain T-type currents, plastic dishes containing semi-confluent cells were positioned on the stage of a ZEISS AXIOVERT S100 microscope after replacing the culture medium with external solution (see below). Whole-cell patches were obtained using pipettes (borosilicate glass with filament, O.D.: 1.5 mm, I.D.: 0.86 mm, 10 cm length), fabricated on a SUTTER P-97 puller with resistance values of ˜5 MΩ (see below for internal solution).
(§3) In the non-inactivating protocol, the holding potential is set at −110 mV and with a pre-pulse at −100 mV for 1 second prior to the test pulse at −40 mV for 50 ms. In the inactivation protocol, the pre-pulse is at approximately −85 mV for 1 second, which inactivates about 15% of the T-type channels.
(§4) Test compounds were dissolved in external solution, 0.1-0.01% DMSO. After 10 min rest, they were applied by gravity close to the cell using a WPI microfil tubing. The “non-inactivated” pre-pulse was used to examine the resting block of a compound. The “inactivated” protocol was employed to study voltage-dependent block. However, the initial data shown below were mainly obtained using the non-inactivated protocol only. . IC50 values are shown for various compounds of the invention in Table 4 for the drug of interest. Values are shown in μM and values above 10 μM are simply represented as 10 μM.

[2] = target: T2, human α1G T-type channels (Homo sapiens, UniProt O43497); experiment: T-type calcium channel block, whole cell patch clamp (α1G); format: cell-based; conditions: HEK cells stably expressing human α1G; mainly non-inactivated protocol; values above 10 μM represented as 10 μM, values below 0.30 μM represented as 0.30 μM
T2 construct: expressed in transfected cells; host or cells: HEK 293
Procedure: as §1, §2, §3, §4

T2 sequence (O43497 whole entry): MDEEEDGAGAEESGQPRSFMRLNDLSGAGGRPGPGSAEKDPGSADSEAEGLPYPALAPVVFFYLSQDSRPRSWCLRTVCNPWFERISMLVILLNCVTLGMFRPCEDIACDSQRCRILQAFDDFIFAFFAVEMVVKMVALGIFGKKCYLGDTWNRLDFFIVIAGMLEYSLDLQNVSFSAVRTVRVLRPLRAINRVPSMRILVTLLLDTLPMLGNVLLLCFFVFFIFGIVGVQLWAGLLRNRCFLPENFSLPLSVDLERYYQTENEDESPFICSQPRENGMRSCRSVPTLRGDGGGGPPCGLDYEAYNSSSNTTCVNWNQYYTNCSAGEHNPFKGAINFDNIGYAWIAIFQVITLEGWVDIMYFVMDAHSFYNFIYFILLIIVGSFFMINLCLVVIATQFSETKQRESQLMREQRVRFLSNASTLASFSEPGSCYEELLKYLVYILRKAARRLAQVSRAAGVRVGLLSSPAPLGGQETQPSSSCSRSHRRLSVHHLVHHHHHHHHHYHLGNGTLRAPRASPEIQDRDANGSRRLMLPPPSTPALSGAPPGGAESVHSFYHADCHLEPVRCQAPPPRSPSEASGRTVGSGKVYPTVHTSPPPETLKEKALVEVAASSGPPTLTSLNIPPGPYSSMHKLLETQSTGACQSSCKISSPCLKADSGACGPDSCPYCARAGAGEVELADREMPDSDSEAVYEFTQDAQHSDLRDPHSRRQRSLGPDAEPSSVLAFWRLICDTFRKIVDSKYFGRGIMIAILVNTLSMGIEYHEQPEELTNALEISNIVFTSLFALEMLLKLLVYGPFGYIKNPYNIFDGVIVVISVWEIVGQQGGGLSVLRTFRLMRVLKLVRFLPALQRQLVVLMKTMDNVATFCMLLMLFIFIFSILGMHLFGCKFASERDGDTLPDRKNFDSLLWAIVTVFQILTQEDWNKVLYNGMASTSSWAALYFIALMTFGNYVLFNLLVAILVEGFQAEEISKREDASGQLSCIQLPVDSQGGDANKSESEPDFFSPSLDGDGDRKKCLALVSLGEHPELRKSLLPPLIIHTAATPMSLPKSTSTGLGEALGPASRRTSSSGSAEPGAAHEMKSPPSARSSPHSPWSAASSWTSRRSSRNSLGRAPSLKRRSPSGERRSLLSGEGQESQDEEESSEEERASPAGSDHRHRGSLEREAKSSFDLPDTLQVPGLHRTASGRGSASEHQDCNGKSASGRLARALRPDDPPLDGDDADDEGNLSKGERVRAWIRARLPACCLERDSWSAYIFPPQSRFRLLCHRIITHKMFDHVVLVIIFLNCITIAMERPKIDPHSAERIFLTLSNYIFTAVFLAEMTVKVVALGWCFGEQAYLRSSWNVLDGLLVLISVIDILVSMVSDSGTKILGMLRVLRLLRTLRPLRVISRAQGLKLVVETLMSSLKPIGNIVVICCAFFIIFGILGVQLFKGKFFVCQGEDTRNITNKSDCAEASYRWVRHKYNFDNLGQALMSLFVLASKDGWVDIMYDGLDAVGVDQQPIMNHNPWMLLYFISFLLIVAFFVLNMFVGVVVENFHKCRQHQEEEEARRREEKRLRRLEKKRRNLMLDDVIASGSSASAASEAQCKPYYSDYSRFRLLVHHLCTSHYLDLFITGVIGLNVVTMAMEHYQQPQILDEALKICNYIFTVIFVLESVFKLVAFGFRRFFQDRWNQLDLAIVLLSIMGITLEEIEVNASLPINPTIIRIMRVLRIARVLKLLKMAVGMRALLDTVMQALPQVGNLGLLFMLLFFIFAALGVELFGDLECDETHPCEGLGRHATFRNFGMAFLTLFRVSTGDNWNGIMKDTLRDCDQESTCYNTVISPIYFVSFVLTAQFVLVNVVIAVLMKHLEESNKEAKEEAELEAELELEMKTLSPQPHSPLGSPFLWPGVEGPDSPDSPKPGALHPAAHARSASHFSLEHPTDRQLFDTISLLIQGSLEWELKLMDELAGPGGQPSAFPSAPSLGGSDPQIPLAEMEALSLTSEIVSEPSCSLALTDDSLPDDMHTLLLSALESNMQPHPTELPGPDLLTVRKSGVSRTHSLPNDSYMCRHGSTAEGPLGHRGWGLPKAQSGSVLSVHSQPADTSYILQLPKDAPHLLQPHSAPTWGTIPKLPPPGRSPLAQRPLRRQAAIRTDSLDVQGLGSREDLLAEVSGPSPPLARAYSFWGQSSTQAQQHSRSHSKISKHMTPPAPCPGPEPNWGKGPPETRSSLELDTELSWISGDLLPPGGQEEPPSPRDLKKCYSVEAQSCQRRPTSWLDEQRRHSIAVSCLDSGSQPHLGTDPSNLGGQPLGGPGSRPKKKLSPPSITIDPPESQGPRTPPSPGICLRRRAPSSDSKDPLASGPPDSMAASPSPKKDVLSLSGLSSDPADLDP
T1 sequence (O95180 whole entry): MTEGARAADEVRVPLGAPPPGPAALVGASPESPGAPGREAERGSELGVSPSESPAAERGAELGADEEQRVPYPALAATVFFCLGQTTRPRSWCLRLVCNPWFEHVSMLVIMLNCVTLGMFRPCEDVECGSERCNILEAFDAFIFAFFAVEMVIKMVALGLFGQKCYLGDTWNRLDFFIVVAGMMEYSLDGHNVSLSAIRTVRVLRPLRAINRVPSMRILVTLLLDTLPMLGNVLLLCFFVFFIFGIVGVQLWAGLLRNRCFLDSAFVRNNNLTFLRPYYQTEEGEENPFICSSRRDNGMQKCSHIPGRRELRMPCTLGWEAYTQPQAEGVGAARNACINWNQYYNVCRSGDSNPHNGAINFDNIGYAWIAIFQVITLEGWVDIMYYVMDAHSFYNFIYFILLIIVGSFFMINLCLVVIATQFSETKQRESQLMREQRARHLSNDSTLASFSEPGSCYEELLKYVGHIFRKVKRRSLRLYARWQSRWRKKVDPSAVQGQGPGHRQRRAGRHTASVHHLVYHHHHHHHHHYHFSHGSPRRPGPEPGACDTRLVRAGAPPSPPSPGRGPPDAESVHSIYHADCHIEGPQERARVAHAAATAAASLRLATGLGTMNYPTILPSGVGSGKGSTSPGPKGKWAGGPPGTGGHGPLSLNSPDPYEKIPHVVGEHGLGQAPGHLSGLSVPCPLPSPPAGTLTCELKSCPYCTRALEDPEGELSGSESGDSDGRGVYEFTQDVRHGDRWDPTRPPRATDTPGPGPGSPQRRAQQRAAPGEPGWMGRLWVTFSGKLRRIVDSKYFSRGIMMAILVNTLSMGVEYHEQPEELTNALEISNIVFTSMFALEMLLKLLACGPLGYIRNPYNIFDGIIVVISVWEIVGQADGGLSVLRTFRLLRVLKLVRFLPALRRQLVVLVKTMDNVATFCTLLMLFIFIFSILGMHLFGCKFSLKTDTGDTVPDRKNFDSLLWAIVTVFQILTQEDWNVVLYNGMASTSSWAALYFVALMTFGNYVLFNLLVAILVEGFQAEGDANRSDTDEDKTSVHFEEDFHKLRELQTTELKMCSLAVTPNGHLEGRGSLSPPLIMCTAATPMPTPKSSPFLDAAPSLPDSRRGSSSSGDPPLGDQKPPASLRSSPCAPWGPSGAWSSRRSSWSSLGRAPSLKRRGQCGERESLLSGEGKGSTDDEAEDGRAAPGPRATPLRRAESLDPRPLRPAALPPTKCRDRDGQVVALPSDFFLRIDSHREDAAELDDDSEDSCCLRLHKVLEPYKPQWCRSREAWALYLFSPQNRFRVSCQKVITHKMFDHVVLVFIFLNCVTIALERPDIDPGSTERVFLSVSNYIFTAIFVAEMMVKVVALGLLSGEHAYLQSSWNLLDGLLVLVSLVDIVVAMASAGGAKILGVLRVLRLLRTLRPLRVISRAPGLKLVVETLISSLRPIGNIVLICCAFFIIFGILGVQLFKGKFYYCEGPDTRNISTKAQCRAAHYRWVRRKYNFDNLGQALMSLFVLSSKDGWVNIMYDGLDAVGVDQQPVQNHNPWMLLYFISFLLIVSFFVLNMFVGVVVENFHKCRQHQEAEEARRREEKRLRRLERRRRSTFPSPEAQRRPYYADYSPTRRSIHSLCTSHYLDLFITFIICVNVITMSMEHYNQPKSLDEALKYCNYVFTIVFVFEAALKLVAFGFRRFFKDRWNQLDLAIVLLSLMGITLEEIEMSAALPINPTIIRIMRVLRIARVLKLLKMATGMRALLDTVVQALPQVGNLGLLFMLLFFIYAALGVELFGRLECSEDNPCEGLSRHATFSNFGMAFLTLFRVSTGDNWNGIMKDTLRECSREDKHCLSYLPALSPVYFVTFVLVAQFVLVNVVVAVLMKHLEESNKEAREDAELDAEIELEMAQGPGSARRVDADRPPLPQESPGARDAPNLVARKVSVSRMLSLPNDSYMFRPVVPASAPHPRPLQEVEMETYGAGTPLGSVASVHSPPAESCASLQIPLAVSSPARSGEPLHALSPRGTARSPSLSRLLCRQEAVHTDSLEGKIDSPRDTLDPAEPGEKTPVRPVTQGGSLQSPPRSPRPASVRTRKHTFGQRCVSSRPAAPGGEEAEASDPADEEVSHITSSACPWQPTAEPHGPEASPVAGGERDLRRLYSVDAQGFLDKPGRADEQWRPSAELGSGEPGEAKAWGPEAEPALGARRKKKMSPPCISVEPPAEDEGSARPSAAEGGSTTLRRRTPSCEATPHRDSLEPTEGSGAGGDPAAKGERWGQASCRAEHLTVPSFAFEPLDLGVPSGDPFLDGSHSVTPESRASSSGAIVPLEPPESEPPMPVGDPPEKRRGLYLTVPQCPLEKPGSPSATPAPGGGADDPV

Structure (SMILES) | IC50 [1] | IC50 [2]
CC(C)(C)NC(=O)CN[C@H]1CC[C@H](CNC(=O)c2cc(Cl)cc(Cl)c2)CC1 [Compound 191, N-(((1r,4r)-4-(2-(tert-butylamino)-2-oxoethylamino)cyclohexyl)methyl)-3,5-dichlorobenzamide] | 180 nM | 530 nM
O=C(NC[C@H]1CC[C@@H](NCc2c(F)cccc2Cl)CC1)c1cc(F)cc(C(F)(F)F)c1 [Compound 23, N-((cis-4-(2-chloro-6-fluorobenzylamino)cyclohexyl)methyl)-3-fluoro-5-(trifluoromethyl)benzamide] | 2870 nM | 910 nM
O=C(NC[C@H]1CC[C@H](NCc2c(F)cccc2Cl)CC1)c1cc(C(F)(F)F)cc(C(F)(F)F)c1 [Compound 34, N-((trans-4-(2-chloro-6-fluorobenzylamino)cyclohexyl)methyl)-3,5-bis(trifluoromethyl)benzamide] | 1970 nM | ≤ 300 nM
COc1cccc(O)c1CN[C@H]1CC[C@H](CNC(=O)c2cc(C(F)(F)F)cc(C(F)(F)F)c2)CC1 [Compound 33, N-((trans-4-(2-hydroxy-6-methoxybenzylamino)cyclohexyl)methyl)-3,5-bis(trifluoromethyl)benzamide] | 710 nM | ≤ 300 nM
O=C(C[C@H]1CC[C@H](NC(=O)C2(c3ccccc3)CCNCC2)CC1)Nc1cc(C(F)(F)F)cc(C(F)(F)F)c1 [Compound 121, (S)-N-(trans-4-(2-(3,5-bis(trifluoromethyl)phenylamino)-2-oxoethyl)cyclohexyl)-4-phenylpiperidine-4-carboxamide] | ≥ 10000 nM | 610 nM
O=C(NC[C@H]1CC[C@@H](NC(=O)[C@H]2CC[C@@H](c3ccccc3)N2)CC1)c1cc(C(F)(F)F)cc(C(F)(F)F)c1 [Compound 139, (2R,5S)-N-(cis-4-((3,5-bis(trifluoromethyl)benzamido)methyl)cyclohexyl)-5-phenylpyrrolidine-2-carboxamide] | 7060 nM | 1070 nM
O=C(NC[C@H]1CC[C@@H](NCc2cccnc2F)CC1)c1cc(C(F)(F)F)cc(C(F)(F)F)c1 [Compound 8, N-((cis-4-((2-fluoropyridin-3-yl)methylamino)cyclohexyl)methyl)-3,5-bis(trifluoromethyl)benzamide] | 4840 nM | 3350 nM
CCN(CC)C(=O)CN[C@H]1CC[C@H](CNC(=O)c2cc(C(F)(F)F)cc(C(F)(F)F)c2)CC1 [Compound 56, N-((trans-4-(2-(diethylamino)-2-oxoethylamino)cyclohexyl)methyl)-3,5-bis(trifluoromethyl)benzamide] | 590 nM | 440 nM
COc1cccnc1CN[C@H]1CC[C@H](CNC(=O)c2cc(C(F)(F)F)cc(C(F)(F)F)c2)CC1 [Compound 30, N-((trans-4-((3-methoxypyridin-2-yl)methylamino)cyclohexyl)methyl)-3,5-bis(trifluoromethyl)benzamide] | 5830 nM | 1060 nM
COc1cccnc1CN[C@H]1CC[C@@H](CNC(=O)c2cc(F)cc(C(F)(F)F)c2)CC1 [Compound 20, 3-fluoro-N-((cis-4-((3-methoxypyridin-2-yl)methylamino)cyclohexyl)methyl)-5-(trifluoromethyl)benzamide] | 5350 nM | 3320 nM
COc1cc(F)cc(C(=O)NC[C@H]2CC[C@@H](NCC(=O)N3CCOCC3(C)C)CC2)c1 [Compound 198, N-(((1s,4s)-4-(2-(3,3-dimethylmorpholino)-2-oxoethylamino)cyclohexyl)methyl)-3-fluoro-5-methoxybenzamide] | 630 nM | 9920 nM
O=C(NC[C@H]1CC[C@@H](NCc2ccccc2O)CC1)c1cc(F)cc(C(F)(F)F)c1 [Compound 15, 3-fluoro-N-((cis-4-(2-hydroxybenzylamino)cyclohexyl)methyl)-5-(trifluoromethyl)benzamide] | 1650 nM | 780 nM

The remaining lines, values ahead:

IC50 [1] | IC50 [2] | Structure (SMILES)
330 nM | 790 nM | CC(C)(C)NC(=O)CN[C@H]1CC[C@@H](CNC(=O)c2cccc(OC(F)(F)F)c2)CC1 [Compound 185, N-(((1s,4s)-4-(2-(tert-butylamino)-2-oxoethylamino)cyclohexyl)methyl)-3-(trifluoromethoxy)benzamide]
1530 nM | 450 nM | CC(C)(C)[C@H](O)C(=O)NC1CCC(CC(=O)Nc2cc(C(F)(F)F)cc(C(F)(F)F)c2)CC1 (stereo in doubt) [Compound 108, (S)-N-((trans)-4-(2-(3,5-bis(trifluoromethyl)phenylamino)-2-oxoethyl)cyclohexyl)-2-hydroxy-3,3-dimethylbutanamide]
2950 nM | ≤ 300 nM | O=C(C[C@H]1CC[C@H](NC(=O)[C@@H]2C[C@@H](c3ccccc3)CN2)CC1)Nc1cc(C(F)(F)F)cc(C(F)(F)F)c1 [Compound 123, (2S,4S)-N-(trans-4-(2-(3,5-bis(trifluoromethyl)phenylamino)-2-oxoethyl)cyclohexyl)-4-phenylpyrrolidine-2-carboxamide]
615 nM | ≤ 300 nM | CC1CCCCN1C(=O)CN[C@H]1CC[C@H](CNC(=O)c2cc(C(F)(F)F)cc(C(F)(F)F)c2)CC1 (stereo partly drawn) [Compound 76, N-((trans-4-(2-(2-methylpiperidin-1-yl)-2-oxoethylamino)cyclohexyl)methyl)-3,5-bis(trifluoromethyl)benzamide]
9760 nM | 1970 nM | O=C(NC[C@H]1CC[C@H](NCc2cccnc2F)CC1)c1cc(C(F)(F)F)cc(C(F)(F)F)c1 [Compound 27, N-((trans-4-((2-fluoropyridin-3-yl)methylamino)cyclohexyl)methyl)-3,5-bis(trifluoromethyl)benzamide]
1100 nM | 2020 nM | CN(C(=O)CN[C@H]1CC[C@H](CNC(=O)c2cc(F)cc(Cl)c2)CC1)C(C)(C)C [Compound 205, N-(((1r,4r)-4-(2-(tert-butyl(methyl)amino)-2-oxoethylamino)cyclohexyl)methyl)-3-chloro-5-fluorobenzamide]
310 nM | 970 nM | CC1(NC(=O)CN[C@H]2CC[C@H](CNC(=O)c3cc(F)cc(Cl)c3)CC2)CCC1 [Compound 202, 3-chloro-5-fluoro-N-(((1r,4r)-4-(2-(1-methylcyclobutylamino)-2-oxoethylamino)cyclohexyl)methyl)benzamide]
590 nM | 340 nM | COc1ccc(CN[C@H]2CC[C@@H](CNC(=O)c3cc(F)cc(C(F)(F)F)c3)CC2)c(OC)c1 [Compound 24, N-((cis-4-(2,4-dimethoxybenzylamino)cyclohexyl)methyl)-3-fluoro-5-(trifluoromethyl)benzamide]
1020 nM | 470 nM | CC(C)(C)C(O)CN[C@H]1CC[C@H](CNC(=O)c2cc(C(F)(F)F)cc(C(F)(F)F)c2)CC1 (stereo partly drawn) [Compound 3, N-((trans-4-(2-hydroxy-3,3-dimethylbutylamino)cyclohexyl)methyl)-3,5-bis(trifluoromethyl)benzamide]
620 nM | ≤ 300 nM | CN(C(=O)CN[C@H]1CC[C@H](CNC(=O)c2cc(C(F)(F)F)cc(C(F)(F)F)c2)CC1)C1CCCC1 [Compound 59, N-((trans-4-(2-(cyclopentyl(methyl)amino)-2-oxoethylamino)cyclohexyl)methyl)-3,5-bis(trifluoromethyl)benzamide]
400 nM | 3400 nM | CC1(C)COCCN1C(=O)CN[C@H]1CC[C@@H](CNC(=O)c2cc(F)cc(Cl)c2)CC1 [Compound 194, 3-chloro-N-(((1s,4s)-4-(2-(3,3-dimethylmorpholino)-2-oxoethylamino)cyclohexyl)methyl)-5-fluorobenzamide]
850 nM | 1030 nM | COc1cc(C(=O)NC[C@H]2CC[C@@H](NCCNC(=O)OC(C)(C)C)CC2)cc(C(F)(F)F)c1 [Compound 100, tert-butyl 2-(cis-4-((3-methoxy-5-(trifluoromethyl)benzamido)methyl)cyclohexylamino)ethylcarbamate]
7850 nM | 700 nM | O=C(NC[C@H]1CC[C@H](NC(=O)[C@H]2CC[C@@H](c3ccccc3)N2)CC1)c1cc(C(F)(F)F)cc(C(F)(F)F)c1 [Compound 137, (2R,5S)-N-(trans-4-((3,5-bis(trifluoromethyl)benzamido)methyl)cyclohexyl)-5-phenylpyrrolidine-2-carboxamide]
